Values joined by “and” are separate entries in the source; they are usually repeats but may differ in a detail not shown here. Equal values may be shown once.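 Five concentrations, 48 hours, 96-well plates. GI50 = concentration required for 50% inhibition of growth. Definition used: TGI = concentration required for complete inhibition of growth.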

Some test systems named below: HCC-2998 colon; SNB-75 CNS; MOLT-4 leukemia; MDA-MB-435; ACHN renal; SNB-19 CNS; SF-268 CNS; K-562 leukemia; HS 578T breast; NCI-H226 lung.
What all share (assay): inhibition of tumour cell growth, NCI panel, 48 h

As for `Fc1ccc(Nc2ccc3cc(OCCCN4CCOCC4)ccc3n2)cc1F`, the GI50 in the experiment with HCC-2998 colon was 2.22 µM; with SNB-75 CNS, 2.44 µM; with MOLT-4 leukemia, 3.45 µM; in the experiment with MDA-MB-435 it was 3.26 µM; in the experiment with ACHN renal, 4.2 µM; in the experiment on SNB-19 CNS, 2.78 µM. For the same molecule, the results for the GI50 in the experiment with SF-268 CNS, with K-562 leukemia and with HS 578T breast were 6.55 µM, 2.78 µM and 3.06 µM, respectively. The TGI was 4.42 µM with HCC-2998 colon; 17.7 µM in the experiment with SNB-75 CNS; > 100 µM in the experiment with MOLT-4 leukemia; 68 µM with MDA-MB-435; 30.7 µM in the experiment on ACHN renal; 7.99 µM with SNB-19 CNS. Moreover, the TGI in the experiment on SF-268 CNS is > 100 µM; in the experiment with K-562 leukemia, > 100 µM; with HS 578T breast, 9.2 µM.
For `Cc1cc2c(cc1C)[n+](=O)c(C(=O)c1cccs1)c(C(F)(F)F)n2[O-]`, the GI50 with HCC-2998 colon was 6.86 µM and 2.08 µM; in the experiment on SNB-75 CNS, 1.02 µM; with MOLT-4 leukemia, 4.39 µM; in the experiment with NCI-H226 lung it was 4.06 µM; in the experiment with MDA-MB-435, 4.45 µM and 4.89 µM; with ACHN renal it was 7.17 µM and 2.75 µM. Also, the GI50 with SNB-19 CNS is 4.61 µM and 7.76 µM; in the experiment on SF-268 CNS, 1.12 µM and 0.978 µM; with K-562 leukemia, 1.43 µM and 2.81 µM. In addition, the TGI in the experiment with HCC-2998 colon is 20.9 µM and 5.24 µM; with SNB-75 CNS, 18.7 µM; in the experiment on MOLT-4 leukemia, 50 µM; in the experiment with NCI-H226 lung it was 50 µM; in the experiment on MDA-MB-435, 16 µM and 21.4 µM; with ACHN renal it was 14.9 µM and 17.4 µM. In addition, the TGI was 50 µM and 52 µM in the experiment on SNB-19 CNS; 4.11 µM and 3.61 µM in the experiment on SF-268 CNS; 50 µM and 16.3 µM in the experiment on K-562 leukemia.
With `C[C@]12CC[C@@H]3c4ccc(OCC(=O)O)cc4CC[C@H]3[C@@H]1CCC2=O`, the TGI was > 100 µM in the experiment with SNB-75 CNS; 64.4 µM in the experiment with MOLT-4 leukemia; > 100 µM in the experiment with NCI-H226 lung; > 100 µM in the experiment on MDA-MB-435; > 100 µM in the experiment with ACHN renal; > 100 µM in the experiment on SNB-19 CNS. Moreover, the TGI in the experiment with SF-268 CNS and in the experiment on HS 578T breast was > 100 µM each time.
As for `O=C1NC(=O)[C@H]2C3C=CC([C@@H]12)[C@@H]1C(=O)NC(=O)[C@H]31`, the TGI in the experiment with HCC-2998 colon, in the experiment on MOLT-4 leukemia, in the experiment on NCI-H226 lung, in the experiment on MDA-MB-435, with ACHN renal and in the experiment with SNB-19 CNS was > 100 µM in each case. Also, the TGI in the experiment on SF-268 CNS, in the experiment on K-562 leukemia and in the experiment with HS 578T breast was > 100 µM throughout.
On to `CCC[CH2][Sn]([CH2]CCC)([O]C(=O)c1cccc(F)c1F)[O][Sn]([CH2]CCC)([CH2]CCC)[O]C(=O)c1cccc(F)c1F`, for which the GI50 in the experiment on HCC-2998 colon was 0.617 µM; in the experiment with SNB-75 CNS, 0.317 µM; with MOLT-4 leukemia it was 0.084 µM; with NCI-H226 lung, 0.317 µM; in the experiment on MDA-MB-435, 0.13 µM; in the experiment with ACHN renal it was 0.214 µM. The GI50 in the experiment with SNB-19 CNS was 0.573 µM; with SF-268 CNS, 0.157 µM; in the experiment with K-562 leukemia it was 0.0371 µM. Also, the TGI was determined as 1.92 µM with HCC-2998 colon; 1.52 µM with SNB-75 CNS; 0.821 µM in the experiment on MOLT-4 leukemia; 0.851 µM in the experiment on NCI-H226 lung; 1.09 µM in the experiment on MDA-MB-435; 0.512 µM with ACHN renal. Also, the TGI was 1.7 µM in the experiment with SNB-19 CNS, 0.541 µM with SF-268 CNS and > 100 µM in the experiment on K-562 leukemia.
Turning to `N#C/C(=C\c1ccc(Br)cc1)n1nnc2cc(F)c(F)cc21`, the GI50 is 2.02 µM with HCC-2998 colon; 2.7 µM in the experiment on MOLT-4 leukemia; 2.17 µM with NCI-H226 lung; 1.38 µM in the experiment with MDA-MB-435; 1.9 µM in the experiment with ACHN renal; 1.64 µM with SNB-19 CNS. In addition, the GI50 with K-562 leukemia was 2 µM; with HS 578T breast, 2.71 µM. Also, the TGI came to 3.67 µM in the experiment on HCC-2998 colon; 8.65 µM in the experiment with MOLT-4 leukemia; 4.99 µM in the experiment with NCI-H226 lung; 3.23 µM in the experiment with MDA-MB-435; 3.63 µM in the experiment on ACHN renal; 3.07 µM in the experiment on SNB-19 CNS. Further, the TGI with K-562 leukemia was > 100 µM; in the experiment on HS 578T breast, 8.3 µM.
As for `N#Cc1c(SCc2ccccc2)nc2[nH]c(=S)[nH]c(=S)c2c1-c1ccco1`, the GI50 is > 100 µM in the experiment with SNB-75 CNS; 5.04 µM in the experiment with MOLT-4 leukemia; 15.1 µM with NCI-H226 lung; 59.5 µM with MDA-MB-435; > 100 µM in the experiment with ACHN renal; 62.2 µM with SNB-19 CNS. For the same molecule, the GI50 in the experiment on SF-268 CNS is 32.4 µM; in the experiment with K-562 leukemia, 24.3 µM; in the experiment on HS 578T breast it was 70.6 µM. Besides, the TGI with SNB-75 CNS was > 100 µM; with MOLT-4 leukemia, > 100 µM; in the experiment with NCI-H226 lung, 52.8 µM; in the experiment with MDA-MB-435, > 100 µM; with ACHN renal, > 100 µM; with SNB-19 CNS, > 100 µM. Besides, the TGI in the experiment on SF-268 CNS, in the experiment on K-562 leukemia and with HS 578T breast was > 100 µM each time.
As for `COc1ccc(C(=O)c2ccc(OC)cc2OC)cc1`, the GI50 was 6.54 µM with HCC-2998 colon; 1.76 µM in the experiment on SNB-75 CNS; 4.9 µM in the experiment with MOLT-4 leukemia; 0.361 µM in the experiment on MDA-MB-435; 6.26 µM in the experiment with ACHN renal; 6.12 µM in the experiment with SNB-19 CNS. In addition, the GI50 with SF-268 CNS was 7.57 µM; with K-562 leukemia, 0.935 µM; with HS 578T breast, 3.5 µM. Besides, the TGI is 41.3 µM in the experiment on HCC-2998 colon; 5.57 µM with SNB-75 CNS; > 100 µM with MOLT-4 leukemia; 2.34 µM with MDA-MB-435; > 100 µM in the experiment on ACHN renal; > 100 µM with SNB-19 CNS. Further, the values for the TGI in the experiment on SF-268 CNS, in the experiment with K-562 leukemia and in the experiment with HS 578T breast were > 100 µM, > 100 µM and 31.4 µM, respectively.
Take `CC(=O)O[C@H]1C(=O)[C@@]2(C)[C@H]([C@H](OC(=O)c3ccccc3)[C@]3(O)C[C@H](OC(=O)[C@H](OC(=O)CCC(=O)OC4CCC(S/N=C(N)/N=C(\N)N(C)C)CC4)[C@@H](NC(=O)c4ccccc4)c4ccccc4)C(C)=C1C3(C)C)[C@]1(OC(C)=O)CO[C@@H]1C[C@@H]2O` (stereo not given in full): the GI50 is 0.0147 µM in the experiment with HCC-2998 colon; < 0.005 µM with SNB-75 CNS; 0.0154 µM in the experiment on MOLT-4 leukemia; 23.4 µM with NCI-H226 lung; 0.11 µM in the experiment with ACHN renal; 0.0205 µM in the experiment on SNB-19 CNS. The GI50 in the experiment on SF-268 CNS is 0.0212 µM; with K-562 leukemia, 0.00692 µM; with HS 578T breast, 0.01 µM. For the same molecule, the TGI is 0.727 µM in the experiment on HCC-2998 colon; 0.0174 µM in the experiment with SNB-75 CNS; > 50 µM in the experiment on MOLT-4 leukemia; > 50 µM with NCI-H226 lung; > 50 µM in the experiment with ACHN renal; > 50 µM in the experiment on SNB-19 CNS. For the same molecule, the TGI in the experiment on SF-268 CNS and in the experiment on K-562 leukemia was > 50 µM in each case.

(Values after PubChem BioAssay (NCI).)
